Target: T1, GST-GlcNAc 2-epimerase-5D (Synechocystis sp. PCC 6803, UniProt P74124)
T1 construct: gene slr1975; 1209 bp PCR fragment
T1 sequence (P74124 1-391): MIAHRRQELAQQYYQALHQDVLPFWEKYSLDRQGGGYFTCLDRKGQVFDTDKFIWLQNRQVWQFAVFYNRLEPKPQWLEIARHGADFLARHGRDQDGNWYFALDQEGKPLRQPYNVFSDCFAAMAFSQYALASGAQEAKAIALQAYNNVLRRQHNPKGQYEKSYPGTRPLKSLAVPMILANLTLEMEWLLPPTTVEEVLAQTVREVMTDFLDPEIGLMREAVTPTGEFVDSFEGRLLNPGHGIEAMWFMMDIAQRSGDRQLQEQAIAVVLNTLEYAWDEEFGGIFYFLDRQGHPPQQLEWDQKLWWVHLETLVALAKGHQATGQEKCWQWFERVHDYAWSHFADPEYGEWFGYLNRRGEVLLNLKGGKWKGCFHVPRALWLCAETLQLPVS
Experiment: enzyme inhibition kinetics
Assay type: biochemical
Conditions: read-out: inhibition constant

Q: Which Ki does the source give for `CC(=O)C(=O)O` [pyruvate] here?
A: 31 mM
